5 molecules from US20250312292A1, “PHARMACEUTICAL COMPOSITION FOR USE IN THERAPEUTIC OR PROPHYLACTIC METHOD FOR KIDNEY INJURY, COMBINED MEDICINE CONTAINING SAID PHARMACEUTICAL COMPOSITION, AND CCBL1 INHIBITOR” (FUJITA ACADEMY, priority 2022, published 2025) can be followed below.

For one series, the target named is T1, recombinant CCBL1 (KAT1) (Homo sapiens, UniProt Q16773).
T1 construct: made in house; host or cells: Sf9 insect cells (baculovirus)
T1 sequence (Q16773 1-422): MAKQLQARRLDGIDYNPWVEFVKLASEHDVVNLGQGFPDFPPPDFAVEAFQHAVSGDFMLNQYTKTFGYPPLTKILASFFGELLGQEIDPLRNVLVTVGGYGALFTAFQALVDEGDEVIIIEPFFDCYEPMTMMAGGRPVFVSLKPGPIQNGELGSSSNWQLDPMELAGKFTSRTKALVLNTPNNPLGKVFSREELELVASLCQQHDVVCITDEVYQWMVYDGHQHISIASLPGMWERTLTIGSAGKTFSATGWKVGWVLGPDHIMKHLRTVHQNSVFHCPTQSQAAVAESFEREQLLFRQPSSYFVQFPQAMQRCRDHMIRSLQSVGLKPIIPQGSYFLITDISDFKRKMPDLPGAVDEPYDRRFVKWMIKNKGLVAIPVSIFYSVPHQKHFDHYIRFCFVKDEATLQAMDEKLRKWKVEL
The series can be described thus: Screening of KAT1 (CCBL1) inhibitory activity, L-kynurenine fluorescence assay. The note with it: for inhibition at 10 µM: 10 μM of the compound, 1 mM L-kynurenine, room temperature 2 hours; for CCBL1 (KAT1) inhibitory activity, in words: screening result. The class given is biochemical. The method, then:
(§1) Sf9 cells infected with baculovirus containing human CCBL1 gene were centrifuged and thereby pelletized and dissolved in 50 mM phosphate buffer solution (pH 8.0) containing 300 mM NaCl and 10 mM imidazole. After ultrasonic treatment, the cell lysate was centrifuged at 10,000×g at 4° C. for 20 minutes, and recombinant CCBL1 in the supernatant was added to a pre-equalized Ni-NTA resin (QIAGEN). An enzyme/resin composite was transferred to a column and washed with a buffer solution containing 300 mM NaCl and 20 mM imidazole in 50 mM phosphate buffer solution (pH 8.0), and recombinant CCBL1 was eluted with a buffer solution (pH 8.0) containing 300 mM NaCl, 250 mM imidazole, and 50 mM phosphate. The enzyme fraction was pooled based on the purity determined by using SDS-PAGE and desalted by using a PD-10 column (GE Healthcare, U.K.)
The CCBL1 inhibitory compound was obtained by screening KAT1 inhibitory activity of compounds included in a compound library (The Spectrum Collection) provided by Center for Supporting Drug Discovery and Life Science Research in Graduate School of Pharmaceutical Sciences, Osaka University. Here, 10 ng/μl recombinant CCBL, 1 mM L-kynurenine, 1 mM sodium pyruvate, 100 μM PLP, and 0.005% Tween 20 mixture solution contained in 150 mM of 2-amino-2-methyl-1-propanol buffer solution were added to a 384-well plate containing 10 μM of the compound and then incubated at room temperature for 2 hours. Subsequently, 20 μL of 300 mM zinc acetate solution was added thereto, and the fluorescent intensities at an excitation wavelength 340 nm and a fluorescent wavelength 460 nm were measured by Infinite M1000 plate reader (TECAN). The Control without containing the compound was defined as reaction 100%, the Background without containing any enzyme was defined as reaction 0%, and the inhibitory activity of the compound (Sample) was calculated based on the following equation.

A further series has as its target T2, recombinant human CCBL1 (Homo sapiens, UniProt Q16773).
T2 construct: made in house; host or cells: Sf9 insect cells (baculovirus)
T2 sequence (Q16773 1-422): T1 sequence (Q16773 1-422)
Put plainly: Inhibition of CCBL1 beta-elimination activity by compound. The note with it: recombinant human CCBL1, compound at different concentrations. The class given is biochemical. As for the experimental part:
as §1
The beta-elimination activity of CCBL1 was measured in accordance with a method described in “Arun Kumar Selvam et al., “A Novel Assay Method to Determine the—Elimination of Se-Methylselenocysteine to Monomethylselenol by Kynurenine Amino transferase 1” Antioxidants 2020, 9, 139; doi: 10. 3390/antiox 9020139″. […] Subsequently, 70 μL of the assay mixture was incubated at 37° C. for 10 minutes, 130 μL of 1M NaOH was added thereto, and the increase in the absorbance at 520 nm was measured by using a spectrophotometer (Nivo Multiplate Microplate Reader, PerkinElmer). […]

In series [1] the test system is cisplatin-induced kidney injury model mice. The series can be described thus: Cisplatin-induced kidney injury model mouse. The note with it: for BUN level in serum / Cre level in serum: compound 25, 50, 100 mg/kg i.p. 30 minutes before cisplatin 20 mg/kg, third day.
Experimental: (§5) To create cisplatin-induced kidney injury model mice, cisplatin (20 mg/kg) was administered once by intraperitoneal administration to male C57BL/6J mice with the body weight of 20 to 25 g (Japan SLC). To examine the kidney protection effect (prophylactic effect) of the compounds expressed by formulae (2) and (3) (hereafter, simply referred to as “compound”) on a cisplatin-induced kidney injury, the compound was intraperitoneally administered with doses of 0, 25, 50, and 100 mg/kg 30 minutes before the cisplatin injection. The mice were sacrificed on the third day after the cisplatin injection. Samples of the blood and the kidneys were taken and preserved at −80° C. for further analysis.
(§6) The levels of creatinine (Cre) and blood urea nitrogen (BUN) in serum were measured by using a fully automated blood biochemistry analyzer (BioMajesty JCA-BM9130) in accordance with a manufacturer-instructed method.
The subject of series [2] is tumor allograft model mice. The series can be described thus: Tumor allograft model mouse (Lewis lung cancer cells). The class given is in vivo. The method, then: Tumors were measured by using vernier calipers, and tumor volumes were calculated as a product of length by width by width. After the tumor reached a certain size, the compound (100 mg/kg) was intraperitoneally administered 30 minutes before the intraperitoneal administration of 20 mg/kg of cisplatin.
Renal tubular damage was scored as follows.

In series [3] the test system is CCBL1 overexpressed LLC/PK1 cells. Put plainly: Cell viability assay, cisplatin-induced renal tubular cell death. The class given is cell-based. The note with it: 24 hours. As for the experimental part:
(§2) LLC/PK1 (pig kidney epithelium), LLC (Lewis lung cancer), and MDA-MB-231 (human breast cancer) cells were obtained from JCRB cell bank (Japan). The LLC/PK1 cells were transfected by a human CCBL1 expression vector, CCBL1 stable overexpression cells were cloned into CCBL1 overexpressed LLC/PK1 cells, which were used for further experiments. The CCBL1 overexpressed LLC/PK1 cells were proliferated in 199/EBSS culture medium (10% FBS, 1% penicillin/streptomycin, and 400 μg/ml of G418), and LLC and MDA-MB-231 cells were proliferated at 37° C. under humidified atmosphere of 5% CO2 in DMEM culture medium (10% FBS and 1% penicillin/streptomycin).
(§3) A cell viability assay kit was used to measure the cell viability. […] The absorbance at 490 nm was measured by using a microplate reader (Molecular Devices, USA). The cell viability was calculated as a value of the absorbance of treated cells relative to the absorbance of untreated cells.
(§4) To examine whether or not the compound X prevents cisplatin-induced renal uriniferous tubular cell death, CCBL1 overexpressed LLC/PK1 cells were treated with different concentrations of cisplatin and the compound X for 24 hours, and the cell viability was evaluated by cell proliferation assay. The expression amount of human CCBL1 in LLC-PK1 cells was determined by immunoblotting. […]

Series [4] concerns cisplatin-induced kidney injury model mice. The note with it: mouse, in vivo.
Experimental: as §5, §6
Series [5] relates to Lewis lung cancer cell lines (LLC cells). Put plainly: Cell viability assay, cisplatin-induced tumor cell death. The class given is cell-based. The note with it: with cisplatin, 24 hours. As for the experimental part: as §2, §3, §4
Series [6] relates to human breast cancer cell lines (MDA-MB-231 cells). The series is described as above. The note with it: with cisplatin, 24 hours. The format is cell-based. As for the experimental part: as §2, §3, §4
Setting [7] is: cisplatin 20 mg/kg i.p. alone, tumor-bearing mice.
Where [8] appears, read: both cisplatin and compound administered.
[9] abbreviates: compound plus cisplatin, tumor-bearing mice.
The mark [10] stands for this setting: compound and cisplatin versus cisplatin alone.

Where two headings read alike, the source gives them in different places.

Turning to `COc1cc(O)c(C(C)=O)c(O)c1` [4-O-METHYLPHLORACETOPHENONE, 4-O-methylphloracetophenone, reference compound], on recombinant CCBL1 (KAT1), the inhibition at 10 µM was 5.6% and the “CCBL1 (KAT1) inhibitory activity, in words” value is recorded as “exhibits little CCBL1 inhibitory activity”.
In the case of `CCC(=O)c1c(O)cc(O)cc1O` [FLOPROPIONE, 1-(2,4,6-trihydroxyphenyl) propan-1-one], the “inhibitory activity to CCBL1 β elimination activity” value at recombinant human CCBL1 is “inhibited by flopropione in a concentration dependent manner”. In addition, in series [1], the “BUN level in serum” value was “reduced Cre and BUN in a dose dependent manner”; the “Cre level in serum” value was “reduced Cre and BUN in a dose dependent manner”. Besides, in series [1] (compound alone, no cisplatin), the “BUN level in serum, compound administered alone” value was “no change was found in the Cre and BUN levels”; the “Cre level in serum, compound administered alone” value is “no change was found in the Cre and BUN levels”. Also, the inhibition at 10 µM at recombinant CCBL1 (KAT1) was found to be 71.9%.
With `O=C(CCc1ccc(O)cc1)c1c(O)cc(O)cc1O` [PHLORETIN, 3-(4-hydroxyphenyl)-1-(2,4,6-trihydroxyphenyl) propan-1-one], on recombinant CCBL1 (KAT1), the inhibition at 10 µM worked out at 83% and the “CCBL1 (KAT1) inhibitory activity, in words” value is “has a CCBL1 inhibitory function”.
On to `N.N.[Cl][Pt][Cl]` [cisplatin], for which the “tumor size, cisplatin” value in series [2] (cisplatin 20 mg/kg i.p.) is given as “reduced the tumor size”. For the same molecule, in series [2] (setting [7]), the “body weight, cisplatin alone” value is “reduced the body weight” and the “relative kidney weight, cisplatin alone” value is “increased the relative kidney weight”. In series [1] (cisplatin 20 mg/kg i.p. alone), the “BUN level in serum, cisplatin alone” value was “increased the Cre and BUN levels”; the “Cre level in serum, cisplatin alone” value was “increased the Cre and BUN levels”; the “body weight, cisplatin alone” value is given as “reduced the body weight”; the “relative kidney weight, cisplatin alone” value was “increased the relative kidney weight”.
As for `CC(=O)c1c(O)cc(O)cc1O` [compound X, 2,4,6-trihydroxyacetophenone], in series [2] (setting [8]), the body weight change result is recorded as “the body weight changed little” and the relative kidney weight entry is “the relative kidney weight decreased”. The “tumor size reduction by cisplatin when compound is co-administered” value in series [2] (compound 100 mg/kg i.p. 30 minutes before cisplatin 20 mg/kg) was “this effect did not change”. Besides, the “renal uriniferous tubular damage score” value in series [2] (compound plus cisplatin versus cisplatin alone) is “reduces the renal uriniferous tubular damage score”. In series [2] (setting [9]), the “BUN concentration in serum” value was “reduced the increase in the cisplatin-induced BUN and Cre in a dose dependent manner”; the “Cre concentration in serum” value is “reduced the increase in the cisplatin-induced BUN and Cre in a dose dependent manner”. For the same molecule, the “LLC-PK1 cell death (cell viability) without cisplatin” value in series [3] (cisplatin 0 μM) is “did not affect the LLC-PK1 cell death”. Also, in series [3] (cisplatin 50 μM), the “cisplatin-induced renal tubular cell death (cell viability)” value is reported as “prevented the cisplatin-induced renal tubular cell death in a dose dependent manner”. Besides, in series [4], the “BUN level in serum, compound administered alone” value was “no change in the Cre and BUN levels was found”; the “Cre level in serum, compound administered alone” value is “no change in the Cre and BUN levels was found”; the “injury of renal uriniferous tubular cells, compound alone (histopathology)” value is recorded as “does not injure renal uriniferous tubular cells”. For the same molecule, at recombinant human CCBL1, the “inhibitory activity to CCBL1 β elimination activity” value is listed as “inhibited by the compound X in a concentration dependent manner”. In addition, the relative kidney weight entry in series [1] (both cisplatin (20 mg/kg i.p.) and compound administered) is “did not increase the relative kidney weight”. Also, in series [1], the “BUN level in serum” value was “reduces the Cre and BUN levels in a dose dependent manner”; the “Cre level in serum” value is “reduces the Cre and BUN levels in a dose dependent manner”. Besides, in series [1] (setting [10]), the “BAX level in kidney (immunoblotting)” value is given as “decreased” and the “Cleaved Caspase-3 level in kidney (immunoblotting)” value is “decreased”. Moreover, in series [1] (compound plus cisplatin), the “cisplatin-induced renal tubular cell death (histopathological observation, PAS stain)” value is given as “suppresses the cisplatin-induced renal tubular cell death in a dose dependent manner”. Moreover, the tubular injury score result in series [1] (group of cisplatin and compound versus only cisplatin) is on record as “lower tubular injury scores than the group of only cisplatin”. Also, in series [5], the “cisplatin-induced tumor cell death (cell viability)” value was “did not affect the cisplatin-induced tumor cell death”. In series [6], the “cisplatin-induced tumor cell death (cell viability)” value was “did not affect the cisplatin-induced tumor cell death”. Also, the inhibition at 10 µM on recombinant CCBL1 (KAT1) came to 88.6%.

Usually inhibition stands for the drop in the measured response relative to a control, in per cent.
